Like-named read-outs stand apart in the source and are kept apart here.
Tests used:
human plasma kallikrein = target: T1, human plasma kallikrein (Homo sapiens, UniProt P03952); experiment: Inactivation rate of human plasma kallikrein; type: biochemical; conditions: Table I; pH 7.5, 25° C; [I] 3 to 330 μM (footnote g); read-out: kobs/[I]
T1 construct: human plasma kallikrein; from tissue; host or cells: human plasma (from the name)
Method: (§1) Inactivation rates of serine proteases by substituted isocoumarins were measured by the incubation method. An aliquot of inhibitor (25 or 50 μl) in Me2 SO was added to a buffered enzyme solution (0.01-2.3 μM) to initiate the inactivation. Aliquots (50 μl) were withdrawn at various intervals and the residual enzymatic activity was measured. Me2 SO concentration in the reaction mixture was 8-12% (v/v). 0.1 Hepes, 0.01M CaCl2, pH 7.5 buffer was utilized for trypsin and coagulation enzymes. 0.1M Hepes, 0.5M NaCl, pH 7.5 was utilized for other serine proteases. The inhibitor concentrations are shown in all the tables. Peptide thioesters or peptide nitroanilides with appropriate sequence were used as substrates for various serine proteases. All peptide thioester hydrolysis rates were measured with assay mixtures containing 4,4'-dithiodipyridine (ε324 =19800M^-1 cm^-1; Grasetti & Murray, Arch. Biochem. Biophys. 119, pp 41-49 (1967)). Peptide 4-nitroanilide nitroanilide hydrolysis was measured at 410 nm (ε410 =8800M^-1 cm^-1; Erlanger et al., Arch. Biochem. Biophys. 95, pp 271-278 (1961)). First order inactivation rate constant (kobs) were obtained from plots of ln (vt /vo) vs time, and the correlation coefficients were greater than 0.98.
(§2) ^a Conditions were as 0.1M Hepes, 0.01M CaCl2, pH 7.5 and 8-12%
(§3) Me2 SO and 25° C. Rate constants were measured by incubation
(§4) method unless otherwise noted. An aliquot of inhibitor was added to an
(§5) enzyme solution and aliquots removed with time and assayed for remaining
(§6) enzymatic activity. Firstorder rate constants, kobs were obtained
(§7) from the plots of ln(vt /vo) versus time.

bovine trypsin = target: T2, bovine trypsin (Bos taurus, UniProt P00760); experiment: Inactivation rate of bovine trypsin; type: biochemical; conditions: Table I; pH 7.5, 25° C; [I] 1 to 12 μM; read-out: kobs/[I]
T2 sequence (P00760 24-246): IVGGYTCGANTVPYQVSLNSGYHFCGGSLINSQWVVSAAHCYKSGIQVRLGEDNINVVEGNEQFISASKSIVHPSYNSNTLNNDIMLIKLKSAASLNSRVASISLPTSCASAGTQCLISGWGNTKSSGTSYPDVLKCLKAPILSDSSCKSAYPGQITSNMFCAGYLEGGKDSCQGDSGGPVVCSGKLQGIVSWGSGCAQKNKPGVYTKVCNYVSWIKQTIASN
Method: as §1, §2, §3, §4, §5, §6, §7
(§8) ^a Inhibition rates were measured in 0.1M Hepes, 0.01M CaCl2, pH
(§9) 7.5 buffer, 8% Me2 SO and at 25° C.

[1] = Spontaneous hydrolysis in Hepes buffer; type: physicochemical; conditions: hepes buffer; 0.1 Hepes, 0.5M NaCl, pH 7.5, 9% Me2SO, 25° C; read-out: t1/2 for spontaneous hydrolysis
Method: ^a Conditions were 0.1 Hepes, 0.5M NaCl, pH 7.5 and 9% Me2 SO at
25° C. Spontaneous hydrolysis rates were measured
spectrophotometrically by monitoring the decrease in absorbance due to th
isocoumarin ring system (wavelength 335-380 nm) using the firstorder rate

human factor XIIa = target: T3, human factor XIIa (Homo sapiens, UniProt P00748); experiment: Inactivation rate of human factor XIIa; type: biochemical; conditions: Table I; pH 7.5, 25° C; [I] 3 to 330 μM; read-out: kobs/[I]
T3 construct: human factor XIIa
T3 sequence (P00748 373-615 limits assumed): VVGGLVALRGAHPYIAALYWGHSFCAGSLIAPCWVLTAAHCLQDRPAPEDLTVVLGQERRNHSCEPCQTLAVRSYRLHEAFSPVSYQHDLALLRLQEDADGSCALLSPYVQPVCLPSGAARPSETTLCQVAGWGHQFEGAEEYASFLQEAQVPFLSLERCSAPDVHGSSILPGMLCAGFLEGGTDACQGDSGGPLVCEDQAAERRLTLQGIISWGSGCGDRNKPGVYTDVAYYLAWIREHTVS
T3 sequence (P00748 20-372 partner limits assumed): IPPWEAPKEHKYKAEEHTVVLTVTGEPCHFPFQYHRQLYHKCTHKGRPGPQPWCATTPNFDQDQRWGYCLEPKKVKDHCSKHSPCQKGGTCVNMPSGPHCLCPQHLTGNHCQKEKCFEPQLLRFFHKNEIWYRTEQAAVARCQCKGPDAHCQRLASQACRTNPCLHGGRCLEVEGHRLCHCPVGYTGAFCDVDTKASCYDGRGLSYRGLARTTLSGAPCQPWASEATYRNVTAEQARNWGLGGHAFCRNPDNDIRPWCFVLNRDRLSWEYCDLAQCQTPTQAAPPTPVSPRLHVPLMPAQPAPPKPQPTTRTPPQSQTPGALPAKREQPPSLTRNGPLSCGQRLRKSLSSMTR
Method: as §1, §2, §3, §4, §5, §6, §7, §8, §9

human plasmin = target: T4, human plasmin (Homo sapiens, UniProt P00747); experiment: Inactivation rate of human plasmin; type: biochemical; conditions: Table VI; pH 7.5, 25° C; [I] 4 to 330 μM; read-out: kobs/[I]
T4 construct: human plasmin; from tissue; host or cells: human plasma
T4 sequence (P00747 581-810 limits assumed): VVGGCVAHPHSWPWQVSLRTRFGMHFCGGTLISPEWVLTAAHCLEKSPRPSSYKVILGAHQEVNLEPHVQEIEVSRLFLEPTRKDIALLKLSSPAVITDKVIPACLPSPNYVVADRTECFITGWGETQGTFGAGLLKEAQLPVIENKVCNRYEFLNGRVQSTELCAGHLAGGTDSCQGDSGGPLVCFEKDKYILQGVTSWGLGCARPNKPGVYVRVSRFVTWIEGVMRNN
T4 sequence (P00747 97-580 partner limits assumed): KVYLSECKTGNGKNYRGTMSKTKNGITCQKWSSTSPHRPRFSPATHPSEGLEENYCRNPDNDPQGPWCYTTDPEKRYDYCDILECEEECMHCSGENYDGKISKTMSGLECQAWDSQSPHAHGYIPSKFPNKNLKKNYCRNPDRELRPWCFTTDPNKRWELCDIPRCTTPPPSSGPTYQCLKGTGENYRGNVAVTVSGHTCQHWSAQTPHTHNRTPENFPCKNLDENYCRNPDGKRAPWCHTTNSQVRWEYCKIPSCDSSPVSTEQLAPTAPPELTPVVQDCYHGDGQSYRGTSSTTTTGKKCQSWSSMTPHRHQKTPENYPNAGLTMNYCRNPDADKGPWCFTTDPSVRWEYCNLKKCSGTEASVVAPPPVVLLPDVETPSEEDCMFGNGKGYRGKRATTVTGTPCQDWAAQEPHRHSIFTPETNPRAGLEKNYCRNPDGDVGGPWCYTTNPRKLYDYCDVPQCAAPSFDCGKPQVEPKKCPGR

[2] = target: T5, human leukocyte elastase (HLE) (Homo sapiens, UniProt P08246); experiment: Inactivation of human leukocyte elastase (HLE); type: biochemical; conditions: for kinact/KI: Table IV, pH 7.5, 25° C, [I] 0.001 to 0.18 mM, read-out: kobs/[I]
T5 construct: from tissue; host or cells: human leukocytes (from the name)
T5 sequence (P08246 30-267): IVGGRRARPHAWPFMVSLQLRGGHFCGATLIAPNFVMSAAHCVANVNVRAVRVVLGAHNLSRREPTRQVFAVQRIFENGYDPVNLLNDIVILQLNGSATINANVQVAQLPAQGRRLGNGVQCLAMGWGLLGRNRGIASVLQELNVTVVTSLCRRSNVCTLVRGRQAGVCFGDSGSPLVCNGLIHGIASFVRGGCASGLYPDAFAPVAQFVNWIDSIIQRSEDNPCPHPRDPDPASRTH

chymotrypsin = chymotrypsin (Bos taurus, UniProt P00766); experiment: Inactivation of chymotrypsin; type: biochemical, bovine; conditions: pH 7.5, 25° C, read-out: kobs/[I]
human factor XIa = target: T6, human factor XIa (Homo sapiens, UniProt P03951); experiment: Inactivation rate of human factor XIa; type: biochemical; conditions: Table I; pH 7.5, 25° C; [I] 3 to 330 μM; read-out: kobs/[I]
T6 construct: human factor XIa
T6 sequence (P03951 388-625 limits assumed): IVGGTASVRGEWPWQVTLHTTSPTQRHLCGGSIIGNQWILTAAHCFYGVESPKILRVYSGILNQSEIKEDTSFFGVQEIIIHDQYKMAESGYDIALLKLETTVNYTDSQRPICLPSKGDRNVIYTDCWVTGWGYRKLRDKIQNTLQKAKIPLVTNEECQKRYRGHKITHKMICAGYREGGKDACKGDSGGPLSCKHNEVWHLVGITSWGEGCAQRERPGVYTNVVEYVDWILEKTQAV
T6 sequence (P03951 19-387 partner limits assumed): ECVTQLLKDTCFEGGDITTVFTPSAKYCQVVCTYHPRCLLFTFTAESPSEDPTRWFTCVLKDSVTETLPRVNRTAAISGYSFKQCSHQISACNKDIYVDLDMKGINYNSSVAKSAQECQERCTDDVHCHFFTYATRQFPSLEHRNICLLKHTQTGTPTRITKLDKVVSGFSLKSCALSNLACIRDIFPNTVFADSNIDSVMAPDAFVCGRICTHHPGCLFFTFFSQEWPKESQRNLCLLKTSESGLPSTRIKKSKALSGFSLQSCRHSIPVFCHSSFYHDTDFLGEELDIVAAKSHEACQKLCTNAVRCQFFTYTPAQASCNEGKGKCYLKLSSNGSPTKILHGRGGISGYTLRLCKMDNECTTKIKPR
Method: as §1, §2, §3, §4, §5, §6, §7, §8, §9

[3] = target: sheep lung lymph tryptase; experiment: Inactivation rate of sheep lung lymph tryptase; type: biochemical; conditions: Table III; pH 7.5, 25° C; [I] 10 to 460 μM
Method: Inactivation rates of serine proteases by substituted isocoumarins were measured by the incubation method. An aliquot of inhibitor (25 or 50 μl) in Me2 SO was added to a buffered enzyme solution (0.01-2.3 μM) to initiate the inactivation. Aliquots (50 μl) were withdrawn at various intervals and the residual enzymatic activity was measured. […] 0.1 Hepes, 0.01M CaCl2, pH 7.5 buffer was utilized for trypsin and coagulation enzymes. […] The inhibitor concentrations are shown in all the tables. Peptide thioesters or peptide nitroanilides with appropriate sequence were used as substrates for various serine proteases.
^a Inactivation rates were measured at 0.1M Hepes, 0.5M NaCl, pH 7.5
buffer, 8% Me2 SO and 25° C.

[4] = target: T7, porcine pancreatic kallikrein (Sus scrofa, UniProt P00752); experiment: Inactivation rate of porcine pancreatic kallikrein; type: biochemical; conditions: Table I; pH 7.5, 25° C; [I] 0.4 to 300 μM; read-out: kobs/[I]
T7 construct: from tissue; host or cells: porcine pancreas (from the name)
T7 sequence (P00752 8-246): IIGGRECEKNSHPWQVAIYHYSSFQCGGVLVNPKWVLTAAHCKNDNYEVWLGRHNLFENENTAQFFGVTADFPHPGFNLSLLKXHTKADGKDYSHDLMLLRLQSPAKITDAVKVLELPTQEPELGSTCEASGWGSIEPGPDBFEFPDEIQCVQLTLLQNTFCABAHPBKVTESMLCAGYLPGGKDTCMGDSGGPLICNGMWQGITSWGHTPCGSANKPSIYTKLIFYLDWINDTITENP

[5] = target: T8, porcine pancreatic elastase (PPE) (Sus scrofa, UniProt P00772); experiment: Inactivation of porcine pancreatic elastase (PPE); type: biochemical; conditions: for kinact/KI: Table IV, pH 7.5, 25° C, [I] 0.01 to 0.51 mM, read-out: kobs/[I]
T8 construct: from tissue; host or cells: porcine pancreas (from the name)
T8 sequence (P00772 27-266): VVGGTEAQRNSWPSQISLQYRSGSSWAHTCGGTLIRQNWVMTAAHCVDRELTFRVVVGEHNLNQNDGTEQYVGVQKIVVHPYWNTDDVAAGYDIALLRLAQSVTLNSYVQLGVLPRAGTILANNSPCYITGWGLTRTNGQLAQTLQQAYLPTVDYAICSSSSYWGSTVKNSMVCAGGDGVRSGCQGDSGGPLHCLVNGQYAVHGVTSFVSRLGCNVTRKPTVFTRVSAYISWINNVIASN

bovine thrombin = target: T9, bovine thrombin (Bos taurus, UniProt P00735); experiment: Inactivation rate of bovine thrombin; type: biochemical; conditions: pH 7.5, 25° C, read-out: kobs/[I]
T9 construct: bovine thrombin
Method: as §1, §2, §3, §4, §5, §6, §7, §8, §9

cathepsin G = target: T10, cathepsin G (Homo sapiens, UniProt P08311); experiment: Inactivation of cathepsin G; type: biochemical; conditions: for kinact/KI: pH 7.5, 25° C, read-out: kobs/[I]
T10 construct: from tissue; host or cells: human leukocytes
T10 sequence (P08311 21-255): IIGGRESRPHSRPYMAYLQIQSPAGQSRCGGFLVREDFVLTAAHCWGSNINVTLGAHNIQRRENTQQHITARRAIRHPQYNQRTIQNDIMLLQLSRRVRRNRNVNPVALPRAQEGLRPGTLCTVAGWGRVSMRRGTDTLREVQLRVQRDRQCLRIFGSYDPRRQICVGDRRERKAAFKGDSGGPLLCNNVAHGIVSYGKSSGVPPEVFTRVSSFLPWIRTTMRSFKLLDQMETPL

complement protein D = complement protein D (Homo sapiens, UniProt P00746); experiment: Inactivation rate of complement protein D; type: biochemical; conditions: Table II; pH 7.5, 25° C; [I] 0.05 to 1.29 mM; read-out: kobs/[I]
Chain of complement protein D (P00746 26-253): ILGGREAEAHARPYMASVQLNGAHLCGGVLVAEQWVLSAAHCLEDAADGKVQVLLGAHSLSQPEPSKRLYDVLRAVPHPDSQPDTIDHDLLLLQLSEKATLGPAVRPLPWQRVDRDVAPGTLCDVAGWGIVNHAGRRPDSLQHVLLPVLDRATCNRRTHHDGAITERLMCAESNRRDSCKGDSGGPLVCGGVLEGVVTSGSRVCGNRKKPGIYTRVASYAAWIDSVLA
Method: as §1
^a Conditions were 0.1M Hepes, 0.5M NaCl, pH 7.5, 8-10% Me2 SO
and 25° C. Inactivation rates were measured by incubation method.
Enzyme concentrations were as follows: protein D, 1-9 μM; C2, 0.7-1
μM; B, 1.8 μM; Bb, 0.3-0.8 μM; Cl^- s, 0.07 μM; Cl^-

bovine factor Xa = target: T11, bovine factor Xa (Bos taurus, UniProt P00743); experiment: Inactivation rate of bovine factor Xa; type: biochemical; conditions: Table I; pH 7.5, 25° C; [I] 0.4 to 310 μM; read-out: kobs/[I]
T11 construct: bovine factor Xa
T11 sequence (P00743 234-492 limits assumed): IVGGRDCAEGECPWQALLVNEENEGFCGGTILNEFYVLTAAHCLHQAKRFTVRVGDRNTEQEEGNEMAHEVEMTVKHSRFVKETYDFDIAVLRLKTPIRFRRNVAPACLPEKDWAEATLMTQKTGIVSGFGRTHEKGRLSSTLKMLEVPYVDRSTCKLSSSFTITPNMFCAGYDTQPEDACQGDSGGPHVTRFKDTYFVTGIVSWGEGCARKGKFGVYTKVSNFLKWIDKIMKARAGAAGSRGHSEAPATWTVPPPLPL
T11 sequence (P00743 41-180 partner limits assumed): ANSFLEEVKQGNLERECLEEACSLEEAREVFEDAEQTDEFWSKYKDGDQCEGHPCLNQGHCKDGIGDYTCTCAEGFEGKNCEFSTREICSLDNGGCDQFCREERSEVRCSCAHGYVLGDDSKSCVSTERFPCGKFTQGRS

human thrombin = target: T12, human thrombin (Homo sapiens, UniProt P00734); experiment: Inactivation rate of human thrombin; type: biochemical; conditions: Table VIII; pH 7.5, 25° C; [I] 1.2-54 μM; read-out: kobs/[I]
T12 construct: human thrombin
Summary of the method: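 Incubation method: enzyme (0.01-2.3 μM) mixed with inhibitor in 0.1M Hepes, 0.01M CaCl2, pH 7.5, 8% Me2SO, 25° C; residual activity sampled over time with peptide thioester or 4-nitroanilide substrates. kobs from ln(vt/vo) vs time plots.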

pig plasma [6] = experiment: Activated partial thromboplastin time (APTT), pig plasma; conditions: [I] 32 μM
pig plasma [7] = experiment: Prothrombin time (PT), pig plasma; conditions: [I] 32 μM

T1 sequence (P03952 391-638 limits assumed): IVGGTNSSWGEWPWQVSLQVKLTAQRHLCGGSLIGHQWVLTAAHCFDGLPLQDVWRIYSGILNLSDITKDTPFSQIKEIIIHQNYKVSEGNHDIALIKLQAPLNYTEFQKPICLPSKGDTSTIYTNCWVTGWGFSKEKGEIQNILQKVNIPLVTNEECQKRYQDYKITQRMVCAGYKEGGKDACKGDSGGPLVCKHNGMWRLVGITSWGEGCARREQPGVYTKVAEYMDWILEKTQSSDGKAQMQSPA
T1 sequence (P03952 20-390 partner limits assumed): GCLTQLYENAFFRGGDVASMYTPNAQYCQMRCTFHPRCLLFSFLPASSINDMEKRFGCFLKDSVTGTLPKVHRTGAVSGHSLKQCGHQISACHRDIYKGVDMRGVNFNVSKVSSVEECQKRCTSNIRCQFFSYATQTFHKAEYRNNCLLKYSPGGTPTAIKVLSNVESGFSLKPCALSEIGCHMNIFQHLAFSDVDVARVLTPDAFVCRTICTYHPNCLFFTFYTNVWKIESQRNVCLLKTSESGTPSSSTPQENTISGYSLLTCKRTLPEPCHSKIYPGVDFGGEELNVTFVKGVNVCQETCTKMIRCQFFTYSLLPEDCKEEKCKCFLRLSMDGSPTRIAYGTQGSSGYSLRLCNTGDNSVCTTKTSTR

SMILES	kinact/KI (human plasma kallikrein) [M⁻¹ s⁻¹]	kinact/KI (bovine trypsin) [M⁻¹ s⁻¹]	half-life [1] [h]	kinact/KI (human factor XIIa) [M⁻¹ s⁻¹]	kinact/KI [2] [M⁻¹ s⁻¹]	kinact/KI (chymotrypsin; Table IV, [I] 0.004 to 0.33 mM) [M⁻¹ s⁻¹]	kinact/KI (human factor XIa) [M⁻¹ s⁻¹]	kobs/[I] [3] [M⁻¹ s⁻¹]	kinact/KI [4] [M⁻¹ s⁻¹]	kinact/KI [5] [M⁻¹ s⁻¹]	kinact/KI (bovine thrombin; Table I, [I] 0.3 to 400 μM) [M⁻¹ s⁻¹]	also measured
CCOc1oc(=O)c2ccccc2c1Cl [3-ethoxy-4-chloroisocoumarin, reference compound]												kinact/KI (complement protein D): 0.25 M⁻¹ s⁻¹
COc1oc(=O)c2cc(N)ccc2c1Cl [7-amino-3-methoxy-4-chloroisocoumarin, reference compound]												kinact/KI (complement protein D): 1.3 M⁻¹ s⁻¹
N=C(N)Nc1ccc2cc(OCCc3ccccc3)oc(=O)c2c1 [7-guanidino-3-(2-phenylethoxy)isocoumarin]	62000	45000	2.33	690	0.9	2600	1200	150	16000		5700	kinact/KI (bovine factor Xa): 11000 M⁻¹ s⁻¹; inhibition at 530 µM (cathepsin G; Table IV, not time dependent, at 0.53 mM): 87%
CCOc1cc2ccc(NC(=N)N)cc2c(=O)o1 [7-guanidino-3-ethoxyisocoumarin]	44000	20000	2.27	1300	1900	990	3100	150	16000	86	3700	kinact/KI (bovine factor Xa): 2700 M⁻¹ s⁻¹; inhibition at 47 µM (cathepsin G; Table IV, not time dependent, at 47 μM): 87%
C[C@@H](NC(=O)Nc1ccc2c(Cl)c(OCCSC(=N)N)oc(=O)c2c1)c1ccccc1 [R-C6 H5 (CH3)CHNHCONH-CiTEtOIC, 7-((R)-α-methylbenzylcarbamoylamino)-4-chloro-3-(2-isothiureidoethoxy)isocoumarin]												kinact/KI (human thrombin): 12000 M⁻¹ s⁻¹; APTT (pig plasma [6]): > 120 s; percentage of inhibition ([2]; Table X, after 5 min incubation): 40%; kinact/KI (chymotrypsin; Table X, [I] 0.9-43 μM): 360 M⁻¹ s⁻¹; PT (pig plasma [7]): 26.2 s; percentage of inhibition ([5]; Table X, after 20 min incubation): 9%; kinact/KI (bovine thrombin; Table VIII, [I] 1.2-54 μM): 29500 M⁻¹ s⁻¹; kinact/KI (cathepsin G; Table X, [I] 33-46 μM): 145 M⁻¹ s⁻¹

Further lines, with some results ahead:

kinact/KI (human plasma kallikrein) [M⁻¹ s⁻¹]	kinact/KI (bovine trypsin) [M⁻¹ s⁻¹]	half-life [1] [h]	kinact/KI (human factor XIIa) [M⁻¹ s⁻¹]	kinact/KI [2] [M⁻¹ s⁻¹]	kinact/KI (chymotrypsin; Table IV, [I] 0.004 to 0.33 mM) [M⁻¹ s⁻¹]	kinact/KI (human factor XIa) [M⁻¹ s⁻¹]	kobs/[I] [3] [M⁻¹ s⁻¹]	kinact/KI [4] [M⁻¹ s⁻¹]	kinact/KI [5] [M⁻¹ s⁻¹]	kinact/KI (bovine thrombin; Table I, [I] 0.3 to 400 μM) [M⁻¹ s⁻¹]	SMILES	also measured
30	1200	10.1	3	47	38	30	8.1	5	2.3	3	NCCCOc1cc2ccccc2c(=O)o1 [3-(3-aminopropoxy)isocoumarin]	kinact/KI (human plasmin): 36 M⁻¹ s⁻¹; kinact/KI (cathepsin G; Table IV, [I] 0.002 to 0.35 mM): 2.8 M⁻¹ s⁻¹
	32100			7710					1960	51.5	COc1oc(=O)c2cc(NC(=O)CN)ccc2c1Cl [7-(glycylamino)-4-chloro-3-methoxyisocoumarin]	kinact/KI (human plasmin): 1470 M⁻¹ s⁻¹; kinact/KI (cathepsin G; Table IV, [I] 0.002 to 0.35 mM): 4.9 M⁻¹ s⁻¹

Reference: US5324648A, “Substituted isocoumarins as serine protease inhibitors and anti-inflammatory agents” (Georgia Tech Research Corporation, priority 1992, dated 1994)
